Experimental findings from US7964560B2, “Hepatitis C virus inhibitors” (Bristol-Myers Squibb Company, priority 2008, dated 2011) are described below.

Like-named read-outs stand apart in the source and are kept apart here.

Assay [1] concerns the target T1, HCV NS3/4A protease complex, BMS strain (UniProt P27958, species not given/STRAIN_BMS).
T1 construct: said of H77 and J4L6S; fused on or other part: three-lysine solubilising tail at the end of NS4A (printed for the H77 and J4L6S constructs; probably the same for BMS)
The assay is described as follows: FRET peptide assay to monitor HCV NS3/4A proteolytic activity (BMS strain). Format: biochemical, Hepatitis C virus (genotype 1a). Conditions: Table 2, NS3/4A BMS strain. The text has this:
HCV […] protease complexes, derived from the BMS strain, H77 strain or J4L6S strain, were generated, as described below. These purified recombinant proteins were generated for use in a homogeneous assay (see below) to provide an indication of how effective compounds of the present disclosure would be in inhibiting HCV NS3 proteolytic activity.
Serum from an HCV-infected patient was obtained from Dr. T. Wright, San Francisco Hospital. An engineered full-length cDNA (compliment deoxyribonucleic acid) template of the HCV genome (BMS strain) was constructed from DNA fragments obtained by reverse transcription-PCR (RT-PCR) of serum RNA (ribonucleic acid) and using primers selected on the basis of homology between other genotype 1a strains. From the determination of the entire genome sequence, a genotype 1a was assigned to the HCV isolate according to the classification of Simmonds et al. (See Simmonds, P. et al., J. Clin. Microbiol., 31(6), 1493-1503 (1993)). […] The infectious clones, H77 (1a genotype) and J4L6S (1b genotype) were obtained from R. Purcell (NIH) and the sequences are published in GENBANK® (AAB67036, see Yanagi, M. et al., Proc. Natl. Acad. Sci. U.S.A., 94(16):8738-8743 (1997); AF054247, see Yanagi, M. et al., Virology, 244(1):161-172 (1998)).
The H77 and J4L6S strains were used for production of recombinant NS3/4A protease complexes. DNA encoding the recombinant HCV NS3/4A protease complex (amino acids 1027 to 1711) for these strains were manipulated as described by P. Gallinari et al. (see Gallinari, P. et al, Biochemistry, 38(17):5620-5632 (1999)). Briefly, a three-lysine solubilizing tail was added at the 3′-end of the NS4A coding region. The cysteine in the P1 position of the NS4A-NS4B cleavage site (amino acid 1711) was changed to a glycine to avoid the proteolytic cleavage of the lysine tag. Furthermore, a cysteine to serine mutation was introduced by PCR at amino acid position 1454 to prevent the autolytic cleavage in the NS3 helicase domain. The variant DNA fragment was cloned in the pET21b bacterial expression vector (Novagen) and the NS3/4A complex was expressed in Escherichia. coli strain BL21 (DE3) (Invitrogen) following the protocol described by P. Gallinari et al. (see Gallinari, P. et al., J. Virol., 72(8):6758-6769 (1998)) with modifications. Briefly, the NS3/4A protease complex expression was induced with 0.5 millimolar (mM) Isopropyl β-D-1-thiogalactopyranoside (IPTG) for 22 hours (h) at 20° C. A typical fermentation (1 Liter (L)) yielded approximately 10 grams (g) of wet cell paste. The cells were resuspended in lysis buffer (10 mL/g) consisting of 25 mM N-(2-hydroxyethyl)piperazine-N′-(2-ethane sulfonic acid) (HEPES), pH 7.5, 20% glycerol, 500 mM sodium chloride (NaCl), 0.5% Triton X-100, 1 microgram/milliliter (“μg/mL”) lysozyme, 5 mM magnesium chloride (MgCl2), 1 μg/ml DnaseI, 5 mM β-mercaptoethanol (βME), protease inhibitor-ethylenediamine tetraacetic acid (EDTA) free (Roche), homogenized and incubated for 20 minutes (min) at 4° C. The homogenate was sonicated and clarified by ultra-centrifugation at 235000 g for 1 hour (h) at 4° C. Imidazole was added to the supernatant to a final concentration of 15 mM and the pH adjusted to 8.0. The crude protein extract was loaded on a Nickel-Nitrilotriacetic acid (Ni-NTA) column pre-equilibrated with buffer B (25 mM HEPES, pH 8.0, 20% glycerol, 500 mM NaCl, 0.5% Triton X-100, 15 mM imidazole, 5 mM βME). The sample was loaded at a flow rate of 1 mL/min. The column was washed with 15 column volumes of buffer C (same as buffer B except with 0.2% Triton X-100). The protein was eluted with 5 column volumes of buffer D (same as buffer C except with 200 mM Imidazole).
NS3/4A protease complex-containing fractions were pooled and loaded on a desalting column Superdex-S200 pre-equilibrated with buffer D (25 mM HEPES, pH 7.5, 20% glycerol, 300 mM NaCl, 0.2% Triton X-100, 10 mM βME). Sample was loaded at a flow rate of 1 mL/min. […]

Assay [2] has as its system HCV replicon in HUH-7 cells. The assay is described as follows: HCV replicon FRET assay. Format: cell-based, Hepatitis C virus (strain 1b). Conditions: Hepatitis C virus, Huh-7, Table 2, HCV replicon, replicon assay format not stated, read-out: EC50. The text has this: An HCV replicon whole cell system was established as described by Lohmann, V. et al., Science, 285(5424):110-113 (1999). This system enabled us to evaluate the effects of our HCV Protease compounds on HCV RNA replication. Briefly, using the HCV strain 1b sequence described in the Lohmann paper (Accession number: AJ238799), an HCV cDNA was synthesized by Operon Technologies, Inc. (Alameda, Calif.), and the full-length replicon was then assembled in plasmid pGem9zf(+) (Promega, Madison, Wis.) using standard molecular biology techniques. The replicon consists of (i) the HCV 5′ UTR fused to the first 12 amino acids of the capsid protein, (ii) the neomycin phosphotransferase gene (neo), (iii) the IRES from encephalomyocarditis virus (EMCV), and (iv) HCV NS3 to NS5B genes and the HCV 3′ UTR. Plasmid DNAs were linearized with ScaI and RNA transcripts were synthesized in vitro using the T7 MegaScript transcription kit (Ambion, Austin, Tex.) according to manufacturer's directions. In vitro transcripts of the cDNA were transfected into the human hepatoma cell line, HUH-7. […] Resulting cell lines were characterized for positive and negative strand RNA production and protein production over time.
The HCV replicon FRET assay was developed to monitor the inhibitory effects of compounds described in the disclosure on HCV viral replication. HUH-7 cells, constitutively expressing the HCV replicon, were grown in Dulbecco's Modified Eagle Media (DMEM) (Gibco-BRL) containing 10% Fetal calf serum (FCS) (Sigma) and 1 mg/ml G418 (Gibco-BRL). Cells were seeded the night before (1.5×10^4 cells/well) in 96-well tissue-culture sterile plates. Compound and no compound controls were prepared in DMEM containing 4% FCS, 1:100 Penicillin/Streptomysin (Gibco-BRL), 1:100 L-glutamine and 5% DMSO in the dilution plate (0.5% DMSO final concentration in the assay). Compound/DMSO mixes were added to the cells and incubated for 4 days at 37° C. After 4 days, cells were first assessed for cytotoxicity using alamar Blue (Trek Diagnostic Systems) for a CC50 reading. The toxicity of compound (CC50) was determined by adding 1/10th volume of alamar Blue to the media incubating the cells. After 4 h, the fluorescence signal from each well was read, with an excitation wavelength at 530 nm and an emission wavelength of 580 nm, using the CYTOFLUOR® Series 4000 (Perspective Biosystems). Plates were then rinsed thoroughly with Phosphate-Buffered Saline (PBS) (3 times 150 μl). The cells were lysed with 25 μl of a lysis assay reagent containing an HCV protease substrate (5× cell Luciferase cell culture lysis reagent (PROMEGA® #E153A) diluted to 1× with distilled water, NaCl added to 150 mM final, the FRET peptide substrate (as described for the enzyme assay above) diluted to 10 μM final from a 2 mM stock in 100% DMSO. The plate was then placed into the CYTOFLUOR® 4000 instrument which had been set to 340 nm excitation/490 nm emission, automatic mode for 21 cycles and the plate read in a kinetic mode. EC50 determinations were carried out as described for the IC50 determinations.
A general note: In antiviral work, replicon cells carry a viral genome segment that copies itself.

T1 sequence (P27958 1027-1657, change not shown, one chain of several): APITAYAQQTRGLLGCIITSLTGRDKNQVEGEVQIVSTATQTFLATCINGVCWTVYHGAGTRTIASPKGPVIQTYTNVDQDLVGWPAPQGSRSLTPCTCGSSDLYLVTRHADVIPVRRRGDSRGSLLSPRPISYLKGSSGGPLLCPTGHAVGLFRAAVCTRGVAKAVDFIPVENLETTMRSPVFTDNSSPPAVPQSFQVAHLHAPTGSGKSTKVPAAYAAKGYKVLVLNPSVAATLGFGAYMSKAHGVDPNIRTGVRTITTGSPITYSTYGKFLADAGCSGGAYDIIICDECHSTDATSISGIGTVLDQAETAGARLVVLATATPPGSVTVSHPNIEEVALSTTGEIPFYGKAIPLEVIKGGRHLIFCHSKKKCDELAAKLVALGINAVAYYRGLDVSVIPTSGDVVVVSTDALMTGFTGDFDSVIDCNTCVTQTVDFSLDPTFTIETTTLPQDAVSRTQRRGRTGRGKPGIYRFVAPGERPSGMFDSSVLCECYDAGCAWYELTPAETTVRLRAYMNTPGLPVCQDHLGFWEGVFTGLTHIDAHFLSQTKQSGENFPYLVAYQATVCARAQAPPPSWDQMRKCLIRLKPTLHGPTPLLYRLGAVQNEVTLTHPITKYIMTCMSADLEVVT

Broadly, the IC50 is the concentration that inhibits the measured activity by half. Higher therefore signals lower potency. The term EC50 denotes the concentration giving half of the maximal effect. For `C=C[C@@H]1C[C@]1(NC(=O)[C@@H]1C[C@](c2ccc(-c3ccccc3)cc2)([S+]([O-])CCCC)CN1C(=O)[C@@H](NC(=O)OC(C)(C)C)C(C)(C)C)C(=O)NS(=O)(=O)C1CC1` (single isomer, unassigned) [Example 2], in assay [1] (activity range), the IC50 lay within 1 to 20 nM. In addition, in assay [2] (activity range), the EC50 lay in the range of 6 to 100 nM.
In turn, `C=C[C@@H]1C[C@]1(NC(=O)[C@@H]1C[C@](c2ccc(-c3ccccc3)cc2)(S(=O)(=O)CCCC)CN1C(=O)[C@@H](NC(=O)OC(C)(C)C)C(C)(C)C)C(=O)NS(=O)(=O)C1CC1` (single isomer, unassigned) [Example 3] gave an IC50 in assay [1] (numeric values) of 1 nM. In assay [2] (numeric values), the EC50 is 6.6 nM.
In assay [1] (activity range), `CCCCS[C@@]1(c2ccc(-c3ccccc3)cc2)C[C@@H](C(=O)N[C@]2(C(=O)NS(=O)(=O)C3CC3)C[C@H]2CC(F)F)N(C(=O)[C@@H](NC(=O)OC(C)(C)C)C(C)(C)C)C1` [Example 4, tert-butyl (S)-1-((2S,4R)-4-(biphenyl-4-yl)-4-(butylthio)-2-((1R,2S)-1-(cyclopropylsulfonylcarbamoyl)-2-(2,2-difluoroethyl)cyclopropylcarbamoyl)pyrrolidin-1-yl)-3,3-dimethyl-1-oxobutan-2-ylcarbamate] displayed an IC50 of 1 to 20 nM. Moreover, the EC50 in assay [2] (activity range) is 6 to 100 nM.
In assay [1] (activity range), `CCCCS[C@@]1(c2ccc(-c3ccccc3)cc2)C[C@@H](C(=O)N[C@]2(C(=O)NS(=O)(=O)C3CC3)C[C@H]2C2CC2)N(C(=O)[C@@H](NC(=O)OC(C)(C)C)C(C)(C)C)C1` [Example 5, tert-butyl (S)-1-((2S,4R)-4-(biphenyl-4-yl)-4-(butylthio)-2-((1S,2R)-2-(cyclopropylsulfonylcarbamoyl)bi(cyclopropan)-2-ylcarbamoyl)pyrrolidin-1-yl)-3,3-dimethyl-1-oxobutan-2-ylcarbamate] had an IC50 of 1 to 20 nM. For the same compound, the EC50 in assay [2] (activity range) fell in the range of 6 to 100 nM.
In assay [1] (numeric values), `CCCCS[C@@]1(c2ccc(-c3ccccc3)cc2)C[C@@H](C(=O)N[C@]2(C(=O)NS(=O)(=O)C3CC3)C[C@H]2C(F)F)N(C(=O)[C@@H](NC(=O)OC(C)(C)C)C(C)(C)C)C1` [Example 6, tert-butyl (S)-1-((2S,4R)-4-(biphenyl-4-yl)-4-(butylthio)-2-((1R,2R)-1-(cyclopropylsulfonylcarbamoyl)-2-(difluoromethyl)cyclopropylcarbamoyl)pyrrolidin-1-yl)-3,3-dimethyl-1-oxobutan-2-ylcarbamate] yielded an IC50 of 2 nM. For the same compound, the EC50 in assay [2] (numeric values) is 18 to 36 nM.
Regarding `CCCCS[C@@]1(c2ccc(-c3ccccc3)cc2)C[C@@H](C(=O)N[C@]2(C(=O)NS(=O)(=O)C3CC3)C[C@H]2C=C(F)F)N(C(=O)[C@@H](NC(=O)OC(C)(C)C)C(C)(C)C)C1` [Example 7, tert-butyl (S)-1-((2S,4R)-4-(biphenyl-4-yl)-4-(butylthio)-2-((1R,2S)-1-(cyclopropylsulfonylcarbamoyl)-2-(2,2-difluorovinyl)cyclopropylcarbamoyl)pyrrolidin-1-yl)-3,3-dimethyl-1-oxobutan-2-ylcarbamate], the IC50 in assay [1] (activity range) lay in the range of 1 to 20 nM. Further, in assay [2] (activity range), the EC50 fell in the range of 6 to 100 nM.
On the same counts, the results for `C=C[C@@H]1C[C@]1(NC(=O)[C@@H]1C[C@@](SC)(c2ccc(-c3ccccc3)cc2)CN1C(=O)[C@@H](NC(=O)OC(C)(C)C)C(C)(C)C)C(=O)NS(=O)(=O)C1CC1` [Example 8, tert-butyl (S)-1-((2S,4R)-4-(biphenyl-4-yl)-2-((1R,2S)-1-(cyclopropylsulfonylcarbamoyl)-2-vinylcyclopropylcarbamoyl)-4-(methylthio)pyrrolidin-1-yl)-3,3-dimethyl-1-oxobutan-2-ylcarbamate] are 1 to 20 nM and 6 to 100 nM.
In assay [1] (activity range), `C=C[C@@H]1C[C@]1(NC(=O)[C@@H]1C[C@@](SC(C)C)(c2ccc(-c3ccccc3)cc2)CN1C(=O)[C@@H](NC(=O)OC(C)(C)C)C(C)(C)C)C(=O)NS(=O)(=O)C1CC1` [Example 9, tert-butyl (S)-1-((2S,4R)-4-(biphenyl-4-yl)-2-((1R,2S)-1-(cyclopropylsulfonylcarbamoyl)-2-vinylcyclopropylcarbamoyl)-4-(isopropylthio)pyrrolidin-1-yl)-3,3-dimethyl-1-oxobutan-2-ylcarbamate] registered an IC50 of 1 to 20 nM. Besides, the EC50 in assay [2] (activity range) was in the range of 6 to 100 nM.
Turning to `C=C[C@@H]1C[C@]1(NC(=O)[C@@H]1C[C@@](SC(C)C)(c2ccc(-c3ccccc3)cc2)CN1C(=O)[C@@H](NC(=O)OC(C)(C)C(F)(F)F)C(C)(C)C)C(=O)NS(=O)(=O)C1CC1` [Example 10, 1,1,1-trifluoro-2-methylpropan-2-yl (S)-1-((2S,4R)-4-(biphenyl-4-yl)-2-((1R,2S)-1-(cyclopropylsulfonylcarbamoyl)-2-vinylcyclopropylcarbamoyl)-4-(isopropylthio)pyrrolidin-1-yl)-3,3-dimethyl-1-oxobutan-2-ylcarbamate], the IC50 in assay [1] (activity range) was in the range of 1 to 20 nM. For the same compound, in assay [2] (activity range), the EC50 lay within 6 to 100 nM.
